Results from US10239843B2 (CANCER RESEARCH TECHNOLOGY LIMITED, priority 2014, dated 2019).
Read-outs that look alike come from different tables or passages of the source.

Tests used:
Human Full Length PARG = Human Full Length PARG (Homo sapiens (Human), UniProt Q86W56); assay: PARG enzyme assay (TR-FRET); assay type: biochemical; settings: read-out: PARG Biochem IC50
PARG in HeLa cell line = assay: PARG cell assay (PAR chain immunofluorescence after MMS); assay type: cell-based; settings: HeLa cells, MMS treatment, read-out: PARG Cell IC50
Outline: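 HeLa cells were dosed with compound for 1 h, then given MMS at 50 μg/mL final for a further hour. Cells were methanol-fixed, permeabilised and stained overnight at 4° C with anti-PAR monoclonal antibody. Retained nuclear PAR chains, detected by indirect immunofluorescence, indicate PARG inhibition.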

Sequence of Human Full Length PARG (Q86W56 whole entry): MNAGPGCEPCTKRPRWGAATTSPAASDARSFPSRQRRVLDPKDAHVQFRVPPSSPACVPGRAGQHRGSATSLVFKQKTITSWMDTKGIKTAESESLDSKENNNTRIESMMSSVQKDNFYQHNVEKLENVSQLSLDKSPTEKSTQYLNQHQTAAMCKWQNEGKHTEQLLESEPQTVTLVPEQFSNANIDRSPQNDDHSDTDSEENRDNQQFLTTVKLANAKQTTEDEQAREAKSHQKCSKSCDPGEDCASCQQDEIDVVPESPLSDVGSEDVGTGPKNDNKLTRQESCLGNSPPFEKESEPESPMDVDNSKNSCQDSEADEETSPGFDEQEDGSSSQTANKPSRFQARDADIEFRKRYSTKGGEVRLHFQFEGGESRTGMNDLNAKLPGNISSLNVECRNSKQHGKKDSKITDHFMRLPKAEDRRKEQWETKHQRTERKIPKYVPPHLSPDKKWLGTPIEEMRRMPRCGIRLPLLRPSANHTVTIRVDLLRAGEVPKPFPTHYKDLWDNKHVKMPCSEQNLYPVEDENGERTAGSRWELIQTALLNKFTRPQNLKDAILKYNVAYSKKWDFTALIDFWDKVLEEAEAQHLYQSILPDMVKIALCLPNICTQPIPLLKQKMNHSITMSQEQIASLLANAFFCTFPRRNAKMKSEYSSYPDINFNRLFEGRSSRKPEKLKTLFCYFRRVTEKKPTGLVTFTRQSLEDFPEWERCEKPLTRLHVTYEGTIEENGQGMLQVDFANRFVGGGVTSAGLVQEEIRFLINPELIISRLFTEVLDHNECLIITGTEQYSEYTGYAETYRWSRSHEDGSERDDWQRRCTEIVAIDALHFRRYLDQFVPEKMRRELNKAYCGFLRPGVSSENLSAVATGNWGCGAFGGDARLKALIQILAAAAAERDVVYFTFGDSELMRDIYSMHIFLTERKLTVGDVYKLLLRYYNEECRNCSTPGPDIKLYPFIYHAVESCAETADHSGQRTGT

| SMILES | IC50 (Human Full Length PARG) | IC50 (PARG in HeLa cell line; Homo sapiens) | IC50 (PARG in HeLa cell line) |
| --- | --- | --- | --- |
| Cn1cc(Cn2c(=O)c3cc(S(=O)(=O)NC4(CF)CC4)ccc3n(Cc3cnco3)c2=O)cn1 [Example 564, N-[1-(Fluoromethyl)cyclopropyl]-3-[(1-methylpyrazol-4-yl)methyl]-1-(oxazol-5-ylmethyl)-2,4-dioxo-quinazoline-6-sulfonamide] | 0.038 µM | 0.127 µM |  |
| Cn1cc(Cn2c(=O)c3cc(S(=O)(=O)NC4(CF)CC4)ccc3n(Cc3nccn3C)c2=O)cn1 [Example 565, N-[1-(Fluoromethyl)cyclopropyl]-1-[(1-methylimidazol-2-yl)methyl]-3-[(1-methylpyrazol-4-yl)methyl]-2,4-dioxo-quinazoline-6-sulfonamide] | 0.156 µM | 0.558 µM |  |
| Cn1cc(Cn2c(=O)c3cc(S(=O)(=O)NC4(CF)CC4)ccc3n(CCc3ccccn3)c2=O)cn1 [Example 566, N-[1-(Fluoromethyl)cyclopropyl]-3-[(1-methylpyrazol-4-yl)methyl]-2,4-dioxo-1-[2-(2-pyridyl)ethyl]quinazoline-6-sulfonamide] | 0.687 µM |  | 0.562 µM |
| Cc1nnc(Cn2c(=O)n(Cc3cnn(C)c3)c(=O)c3cc(S(=O)(=O)NC4(CF)CC4)ccc32)o1 [Example 567, N-[1-(Fluoromethyl)cyclopropyl]-1-[(5-methyl-1,3,4-oxadiazol-2-yl)methyl]-3-[(1-methylpyrazol-4-yl)methyl]-2,4-dioxo-quinazoline-6-sulfonamide] | 0.225 µM | 0.855 µM |  |
| Cn1cc(Cn2c(=O)c3cc(S(=O)(=O)NC4(CF)CC4)ccc3n(CC3(CO)CC3)c2=O)cn1 [Example 570, N-[1-(Fluoromethyl)cyclopropyl]-1-[[1-(hydroxymethyl)cyclopropyl]methyl]-3-[(1-methylpyrazol-4-yl)methyl]-2,4-dioxo-quinazoline-6-sulfonamide] | 0.126 µM | 0.238 µM |  |
| Cn1cc(Cn2c(=O)c3cc(S(=O)(=O)NC4(CF)CC4)ccc3n(CCC#N)c2=O)cn1 [Example 574, 1-(2-Cyanoethyl)-N-[1-(fluoromethyl)cyclopropyl]-3-[(1-methylpyrazol-4-yl)methyl]-2,4-dioxo-quinazoline-6-sulfonamide] | 0.17 µM | 0.53 µM |  |
| CCn1cncc1Cn1c(=O)n(Cc2cnn(C)c2)c(=O)c2cc(S(=O)(=O)NC3(CF)CC3)ccc21 [Example 576, 1-[(3-Ethylimidazol-4-yl)methyl]-N-[1-(fluoromethyl)cyclopropyl]-3-[(1-methylpyrazol-4-yl)methyl]-2,4-dioxo-quinazoline-6-sulfonamide] | 0.042 µM | 2.16 µM |  |
| Cn1cc(Cn2c(=O)c3cc(S(=O)(=O)NC4(CF)CC4)ccc3n(Cc3cnsc3)c2=O)cn1 [Example 577, N-[1-(Fluoromethyl)cyclopropyl]-1-(isothiazol-4-ylmethyl)-3-[(1-methylpyrazol-4-yl)methyl]-2,4-dioxo-quinazoline-6-sulfonamide] | 0.024 µM |  | 0.036 µM |
| Cc1nnc(Cn2c(=O)n(Cc3cnn(C)c3)c(=O)c3cc(S(=O)(=O)NC4(CF)CC4)ccc32)s1 [Example 583, N-[1-(Fluoromethyl)cyclopropyl]-3-[(1-methylpyrazol-4-yl)methyl]-1-[(5-methyl-1,3,4-thiadiazol-2-yl)methyl]-2,4-dioxo-quinazoline-6-sulfonamide] | 0.093 µM | 0.153 µM |  |
| Cn1cc(Cn2c(=O)c3cc(S(=O)(=O)NC4(CF)CC4)ccc3n(Cc3nncn3C)c2=O)cn1 [Example 584, N-[1-(Fluoromethyl)cyclopropyl]-3-[(1-methylpyrazol-4-yl)methyl]-1-[(4-methyl-1,2,4-triazol-3-yl)methyl]-2,4-dioxo-quinazoline-6-sulfonamide] | 0.171 µM |  | 25.8 µM |
| Cn1cc(Cn2c(=O)c3cc(S(=O)(=O)NC4(CF)CC4)ccc3n(Cc3ccno3)c2=O)cn1 [Example 585, N-[1-(Fluoromethyl)cyclopropyl]-1-(isoxazol-5-ylmethyl)-3-[(1-methylpyrazol-4-yl)methyl]-2,4-dioxo-quinazoline-6-sulfonamide] | 0.038 µM | 0.052 µM |  |
| Cn1cc(Cn2c(=O)c3cc(S(=O)(=O)NC4(CF)CC4)ccc3n(Cc3nc[nH]n3)c2=O)cn1 [Example 587, N-[1-(Fluoromethyl)cyclopropyl]-3-[(1-methylpyrazol-4-yl)methyl]-2,4-dioxo-1-(1H-1,2,4-triazol-3-ylmethyl)quinazoline-6-sulfonamide] | 0.207 µM | 7.98 µM |  |
| Cn1cc(Cn2c(=O)c3cc(S(=O)(=O)NC4(CF)CC4)ccc3n(Cc3cncn3C)c2=O)cn1 [Example 588, N-[1-(Fluoromethyl)cyclopropyl]-1-[(3-methylimidazol-4-yl)methyl]-3-[(1-methylpyrazol-4-yl)methyl]-2,4-dioxo-quinazoline-6-sulfonamide] | 0.019 µM | 1.5 µM |  |
| Cn1cc(Cn2c(=O)c3cc(S(=O)(=O)NC4(CF)CC4)ccc3n(Cc3nncs3)c2=O)cn1 [Example 589, N-[1-(Fluoromethyl)cyclopropyl]-3-[(1-methylpyrazol-4-yl)methyl]-2,4-dioxo-1-(1,3,4-thiadiazol-2-ylmethyl)quinazoline-6-sulfonamide] | 0.055 µM | 0.187 µM |  |
| Cn1cc(Cn2c(=O)c3cc(S(=O)(=O)NC4(CF)CC4)ccc3n(Cc3cn[nH]c3)c2=O)cn1 [Example 590, N-[1-(Fluoromethyl)cyclopropyl]-3-[(1-methylpyrazol-4-yl)methyl]-2,4-dioxo-1-(1H-pyrazol-4-ylmethyl)quinazoline-6-sulfonamide] | 0.03 µM | 0.773 µM |  |
| Cc1n[nH]c(Cn2c(=O)n(Cc3cnn(C)c3)c(=O)c3cc(S(=O)(=O)NC4(CF)CC4)ccc32)n1 [Example 592, N-[1-(Fluoromethyl)cyclopropyl]-3-[(1-methylpyrazol-4-yl)methyl]-1-[(3-methyl-1H-1,2,4-triazol-5-yl)methyl]-2,4-dioxo-quinazoline-6-sulfonamide] | 0.3 µM | 11.4 µM |  |

Continued, values first:

| IC50 (Human Full Length PARG) | IC50 (PARG in HeLa cell line; Homo sapiens) | IC50 (PARG in HeLa cell line) | SMILES |
| --- | --- | --- | --- |
| 0.1 µM | 5.29 µM |  | Cc1nc(Cn2c(=O)n(Cc3cnn(C)c3)c(=O)c3cc(S(=O)(=O)NC4(CF)CC4)ccc32)c[nH]1 [Example 568, N-[1-(Fluoromethyl)cyclopropyl]-1-[(2-methyl-1H-imidazol-4-yl)methyl]-3-[(1-methylpyrazol-4-yl)methyl]-2,4-dioxo-quinazoline-6-sulfonamide] |
| 0.13 µM | 0.128 µM |  | Cc1cnc(Cn2c(=O)n(Cc3cnn(C)c3)c(=O)c3cc(S(=O)(=O)NC4(CF)CC4)ccc32)cn1 [Example 569, N-[1-(Fluoromethyl)cyclopropyl]-1-[(5-methylpyrazin-2-yl)methyl]-3-[(1-methylpyrazol-4-yl)methyl]-2,4-dioxo-quinazoline-6-sulfonamide] |
| 0.33 µM | 0.373 µM |  | Cc1ccnc(Cn2c(=O)n(Cc3cnn(C)c3)c(=O)c3cc(S(=O)(=O)NC4(CF)CC4)ccc32)c1 [Example 571, N-[1-(Fluoromethyl)cyclopropyl]-3-[(1-methylpyrazol-4-yl)methyl]-1-[(4-methyl-2-pyridyl)methyl]-2,4-dioxo-quinazoline-6-sulfonamide] |
| 0.071 µM | 0.167 µM |  | Cc1ccc(Cn2c(=O)n(Cc3cnn(C)c3)c(=O)c3cc(S(=O)(=O)NC4(CF)CC4)ccc32)cn1 [Example 573, N-[1-(Fluoromethyl)cyclopropyl]-3-[(1-methylpyrazol-4-yl)methyl]-1-[(6-methyl-3-pyridyl)methyl]-2,4-dioxo-quinazoline-6-sulfonamide] |
| 0.088 µM | 1.57 µM |  | Cn1cc(Cn2c(=O)c3cc(S(=O)(=O)NC4(CF)CC4)ccc3n(Cc3c[nH]cn3)c2=O)cn1 [Example 575, N-[1-(Fluoromethyl)cyclopropyl]-1-(1H-imidazol-4-ylmethyl)-3-[(1-methylpyrazol-4-yl)methyl]-2,4-dioxo-quinazoline-6-sulfonamide] |
| 0.069 µM | 0.046 µM |  | Cc1nc(Cn2c(=O)n(Cc3cnn(C)c3)c(=O)c3cc(S(=O)(=O)NC4(CF)CC4)ccc32)co1 [Example 580, N-[1-(Fluoromethyl)cyclopropyl]-1-[(2-methyloxazol-4-yl)methyl]-3-[(1-methylpyrazol-4-yl)methyl]-2,4-dioxo-quinazoline-6-sulfonamide] |
| 0.057 µM |  | 0.055 µM | Cn1cc(Cn2c(=O)c3cc(S(=O)(=O)NC4(CF)CC4)ccc3n(Cc3cscn3)c2=O)cn1 [Example 581, N-[1-(Fluoromethyl)cyclopropyl]-3-[(1-methylpyrazol-4-yl)methyl]-2,4-dioxo-1-(thiazol-4-ylmethyl)quinazoline-6-sulfonamide] |
| 0.16 µM | 0.073 µM |  | Cc1nc(Cn2c(=O)n(Cc3cnn(C)c3)c(=O)c3cc(S(=O)(=O)NC4(CF)CC4)ccc32)cs1 [Example 582, N-[1-(Fluoromethyl)cyclopropyl]-3-[(1-methylpyrazol-4-yl)methyl]-1-[(2-methylthiazol-4-yl)methyl]-2,4-dioxo-quinazoline-6-sulfonamide] |
| 0.082 µM | 0.53 µM |  | Cn1cc(Cn2c(=O)c3cc(S(=O)(=O)NC4(CF)CC4)ccc3n(Cc3cc[nH]n3)c2=O)cn1 [Example 586, N-[1-(Fluoromethyl)cyclopropyl]-3-[(1-methylpyrazol-4-yl)methyl]-2,4-dioxo-1-(1H-pyrazol-3-ylmethyl)quinazoline-6-sulfonamide] |
| 0.03 µM | 0.032 µM |  | Cc1cc(Cn2c(=O)n(Cc3cnn(C)c3)c(=O)c3cc(S(=O)(=O)NC4(CF)CC4)ccc32)sn1 [Example 591, N-[1-(Fluoromethyl)cyclopropyl]-1-[(3-methylisothiazol-5-yl)methyl]-3-[(1-methylpyrazol-4-yl)methyl]-2,4-dioxo-quinazoline-6-sulfonamide] |
